Patent US10933145B2, “Compositions and methods for reducing the risk of radiocontrast-induced nephropathy” (UNIVERSITY OF PITTSBURGH—OF THE COMMONWEALTH SYSTEM OF …, priority 2016, dated 2021)

Key:
[1] = test system: NFκB activity in MDCK cells; experiment: NFκB activity in MDCK cells exposed to radiocontrast, with or without calcineurin inhibitor; assay type: cell-based, Canine; conditions: MDCK cells treated with 16% radiocontrast; FIG. 4A
Text: FIG. 4A-B. NFκB activity in MDCK cells exposed to increasing amounts of radiocontrast and treated with (A) FK506 (gray bar) or DMSO (as negative control, black bar) or (B) Cyclosporin A.
NFκB activity in MDCK cells exposed to increasing amounts of radiocontrast and treated with either FK506 (FIG. 4A) or cyclosporin A (FIG. 4B).

[2] = test system: NFAT activity in MDCK cells; experiment: NFAT-luciferase reporter activity in MDCK cells; assay type: cell-based, Canine; conditions: 16 percent radiocontrast, 3 hours, MDCK cells infected with Ad-NFAT-luciferase; FIG. 2
Method: FIG. 2. NFAT (Nuclear Factor of Activated T-cells) activity in MDCK cells measured via NFAT-luciferase expression at increasing concentrations of radiocontrast. MDCK were engineered to contain a reporter for inflammatory NFAT activity. In particular, MDCK cells were infected with Ad-NFAT-luciferase and treated for 3 hours with […] (0-16%) of iohexol radiocontrast. NFAT activity in MDCK cells was measured via NFAT-luciferase expression.

CC(=O)N(CC(O)CO)c1c(I)c(C(=O)NCC(O)CO)c(I)c(C(=O)NCC(O)CO)c1I (centres unmarked) [iohexol radiocontrast, iohexol]
increase in NFκB activation [1]: approximately 5 fold
NFAT activation relative to control [2]: 40 fold
